Patent publication US11970470B1, “{5-chloro-2-(2-(3-(substitutedphenyl)-1,2,4-oxadiazol-5-yl)ethyl)phenyl}(phenyl)methanones as larvicidal agents” (KING FAISAL UNIVERSITY, priority 2023, dated 2024)
Where two headings read alike, the source gives them in different places.

Tests used:
Anopheles arabiensis = experiment: Larvicidal screening (WHO protocol), 3rd instar larvae; assay type: in vivo; settings: for mortality at 4 µg/mL: 4 μg/mL
Protocol: Anopheles arabiensis was used in the study according to the protocol described by WHO (1975) guidelines in an insectary simulating the temperature (27.5° C.), humidity (70%), and lighting (12/12) of a malaria-endemic environment. One mL of test compound (1 mg/mL) was added to 1 mL of acetone and followed by […] of distilled water to obtain a final concentration of 4 μg/mL. Thirty individuals of 3rd instar larvae were introduced into a container. Negative control was set up using the solvent (acetone) and distilled water, and a positive control included Temephos, which is an active emulsified organophosphate larvicidal used by malaria control programs. Larval mortality was examined for each container separately for 24 h and fed specially made cat food that contained less oil/fat content. The percentage of mortality was determined relative to the initial number of larvae exposed.
Differences in larval mortality between treatments were assessed with generalized linear models using a quasi-Poisson link function. Anopheles arabiensis mortality was the dependent variable, while fixed effects were test compounds and observation period (24 and 48 h). A p-value<0.05 was considered statistically significant. Throughout the text, the results are presented as the adjusted mean±the standard error.

[1] = Anopheles arabiensis larvae exposed for 24 h, read-out: Mortality in % (Mean ± SEM) 24 h
[2] = Anopheles arabiensis larvae exposed for 48 h, read-out: Mortality in % (Mean ± SEM) 48 h

SMILES	melting point [°C]	mortality at 4 µg/mL (Anopheles arabiensis; [1]) [%]	mortality at 4 µg/mL (Anopheles arabiensis; [2]) [%]	larval mortality rate in 48 hours (Anopheles arabiensis; in 48 hours, unit not given)
O=C(c1ccccc1)c1cc(Cl)ccc1OCc1nc(-c2ccccc2)no1 [Compound 5a, {5-Chloro-2-[(3-(phenyl)-1,2,4-oxadiazol-5-yl)-methoxy]-phenyl}-(phenyl)-methanone]	108 to 110	–	–	–
O=C(c1ccccc1)c1cc(Cl)ccc1OCc1nc(-c2ccc(F)cc2)no1 [Compound 5b, {5-Chloro-2-[(3-(4-fluorophenyl)-1,2,4-oxadiazol-5-yl)-methoxy]-phenyl}-(phenyl)-methanone]	–	91.7 ± 1.61	94.7 ± 1.9	–
O=C(c1ccccc1)c1cc(Cl)ccc1OCc1nc(-c2ccc(I)cc2)no1 [Compound 5c, {5-chloro-2-[(3-(4-iodophenyl)-1,2,4-oxadiazol-5-yl)-methoxy]-phenyl}-(phenyl)-methanone]	124 to 126	–	–	–
Cc1cc(F)c(-c2noc(COc3ccc(Cl)cc3C(=O)c3ccccc3)n2)cc1F [Compound 5d, {5-Chloro-2-[(3-(2,5-difluoro-4-methylphenyl)-1,2,4-oxadiazol-5-yl)-methoxy]-phenyl}-(phenyl)-methanone]	87 to 89	–	–	–
CCOc1ccc(-c2noc(COc3ccc(Cl)cc3C(=O)c3ccccc3)n2)cc1 [Compound 5e, {5-Chloro-2-[(3-(4-ethoxyphenyl)-1,2,4-oxadiazol-5-yl)-methoxy]-phenyl}-(phenyl)-methanone]	80 to 82	–	–	–
O=C(c1ccccc1)c1cc(Cl)ccc1OCc1nc(-c2ccc(F)c(Cl)c2)no1 [Compound 5f, {5-Chloro-2-[(3-(3-chloro-4-fluorophenyl)-1,2,4-oxadiazol-5-yl)-methoxy]-phenyl}-(phenyl)-methanone]	–	98.2 ± 1.22	100 ± 2.01	100.00±2.01
CC(C)c1ccc(-c2noc(COc3ccc(Cl)cc3C(=O)c3ccccc3)n2)cc1 [Compound 5g, {5-Chloro-2-[(3-(4-isopropylphenyl)-1,2,4-oxadiazol-5-yl)-methoxy]-phenyl}-(phenyl)-methanone]	110 to 112	–	–	–
Cc1cc(-c2noc(COc3ccc(Cl)cc3C(=O)c3ccccc3)n2)ccc1F [Compound 5h, {5-Chloro-2-[(3-(4-fluoro-3-methylphenyl)-1,2,4-oxadiazol-5-yl)-methoxy]-phenyl}-(phenyl)-methanone]	–	83.6 ± 2.01	86.1 ± 1.95	–
COc1cc(-c2noc(COc3ccc(Cl)cc3C(=O)c3ccccc3)n2)ccc1F [Compound 5i, {5-Chloro-2-[(3-(4-fluoro-3-methoxyphenyl)-1,2,4-oxadiazol-5-yl)-methoxy]-phenyl}-(phenyl)-methanone]	–	79.5 ± 1.09	84.7 ± 1.88	–
